# Results as given in publication PMC11439681, “The identification of potent dual-target monopolar spindle 1 (MPS1) and histone deacetylase 8 (HDAC8) inhibitors through pharmacophore modeling, molecular docking, molecular dynamics simulations, and biological evaluation” (Frontiers in Pharmacology, 2024).
# Experiments:
# HepG2 liver cancer cells = experiment: MTT cytotoxicity assay, HepG2; assay type: cell-based; details: Homo sapiens, 72 h cell treatment
# Procedure: (§1) The cells (5 × 10^4 cells/well) were incubated overnight in 96-well plates. A series of solutions containing varying concentrations of inhibitors were added and incubated at 37°C for a period of 72 h. Subsequently, the culture medium was removed, followed by a subsequent incubation of the cells with a 5 mg/mL MTT stock solution for 4 h. After centrifugation, the precipitate was solubilized in DMSO and gently shaken for 15 min. Finally, the absorbance measurement at 570 nm was completed using a microplate reader. Data analysis was performed using GraphPad Prism 6.0 software.
# BEL7402 = experiment: MTT cytotoxicity assay, BEL7402; assay type: cell-based; details: Homo sapiens, Bel-7402, 72 h cell treatment
# Procedure: as §1
# Huh-1 = experiment: MTT cytotoxicity assay, Huh-1; assay type: cell-based; details: Homo sapiens, 72 h cell treatment
# Procedure: as §1
# P-histone H3 = experiment: Gene expression analysis of P-histone H3 in HepG2 cells; assay type: cell-based, human; details: 20 h, 0.25, 1 and 5 μM
# Procedure: Total RNA was extracted after the indicated treatments using the RNeasy Mini Kit (cat. no. 74106; QIAGEN, Hilden, Germany) following the manufacturer’s protocol. The concentration of RNA was measured on a plate reader, and then the extracted RNA was converted to cDNA using a High-Capacity RNA-to-cDNA kit from Applied Biosystems (Thermo Fisher Scientific, Inc.). Quantitative real-time polymerase chain reaction was performed in triplicate in a 96-well optical PCR plate using a QuantStudio Real-Time PCR System. Gene expression levels were evaluated using the comparative CT method. Graphical representations of the data were generated by GraphPad Prism 8.
# Previous studies indicate that MPS1 inhibitor exerts its antitumor effects by downregulating the levels of phosphorylated histone H3 ([Naud et al., 2013]), while HDAC8 inhibitor achieves its antitumor activity by upregulating lysine residue 62 acetylation (Ace-K62) levels of pyruvate kinase M2 (PKM2) ([Zhang et al., 2020]). The gene expression of P-histone H3 and Ace-K62 was detected in HepG2 cells with the treatment of MPH-5 for 20 h (at the concentration of 0, 0.25, 1, and 5 μM, respectively). […] As the concentration of MPH-5 increases, the inhibitory effect on P-histone H3 and the promotional effect on Ace-K62 become more pronounced.
# ABL2 = target: T1, ABL2 (Homo sapiens, UniProt P42684); experiment: In vitro selectivity assay; assay type: biochemical; details: selectivity panel
# T1 construct: ICE Bioscience Inc. (assay service)
# Procedure: (§2) The inhibitory effects of compound MPH-5 on a panel of 68 kinases and other histone deacetylases were evaluated to assess the selectivity profile of MPH-5. This experiment was conducted by ICE Bioscience Inc. (Beijing, China).
# AXL = target: T2, AXL (Homo sapiens, UniProt P30530); experiment: In vitro selectivity assay; assay type: biochemical; details: selectivity panel
# T2 construct: ICE Bioscience Inc. (assay service)
# Procedure: as §2
# BMX = target: T3, BMX (Homo sapiens, UniProt P51813); experiment: In vitro selectivity assay; assay type: biochemical; details: selectivity panel
# T3 construct: ICE Bioscience Inc. (assay service)
# Procedure: as §2
# BTK = target: T4, BTK (Homo sapiens, UniProt Q06187); experiment: In vitro selectivity assay; assay type: biochemical; details: selectivity panel
# T4 construct: ICE Bioscience Inc. (assay service)
# Procedure: as §2
# DDR2 = target: T5, DDR2 (Homo sapiens, UniProt Q16832); experiment: In vitro selectivity assay; assay type: biochemical; details: selectivity panel
# T5 construct: ICE Bioscience Inc. (assay service)
# Procedure: as §2
# EPHA2 = target: T6, EPHA2 (Homo sapiens, UniProt P29317); experiment: In vitro selectivity assay; assay type: biochemical; details: selectivity panel
# T6 construct: ICE Bioscience Inc. (assay service)
# Procedure: as §2
# EPHA5 = target: T7, EPHA5 (Homo sapiens, UniProt P54756); experiment: In vitro selectivity assay; assay type: biochemical; details: selectivity panel
# T7 construct: ICE Bioscience Inc. (assay service)
# Procedure: as §2
# EPHA6 = target: T8, EPHA6 (Homo sapiens, UniProt Q9UF33); experiment: In vitro selectivity assay; assay type: biochemical; details: selectivity panel
# T8 construct: ICE Bioscience Inc. (assay service)
# Procedure: as §2
# EPHA8 = target: T9, EPHA8 (Homo sapiens, UniProt P29322); experiment: In vitro selectivity assay; assay type: biochemical; details: selectivity panel
# T9 construct: ICE Bioscience Inc. (assay service)
# Procedure: as §2
# EPHB3 = target: T10, EPHB3 (Homo sapiens, UniProt P54753); experiment: In vitro selectivity assay; assay type: biochemical; details: selectivity panel
# T10 construct: ICE Bioscience Inc. (assay service)
# Procedure: as §2
# EPHB4 = EPHB4 (Homo sapiens, UniProt P54760); experiment: In vitro selectivity assay; assay type: biochemical; details: selectivity panel
# Procedure: as §2
# ERBB2 = ERBB2 (Homo sapiens, UniProt P04626); experiment: In vitro selectivity assay; assay type: biochemical; details: selectivity panel
# Procedure: as §2
# FGFR3 = FGFR3 (Homo sapiens, UniProt P22607); experiment: In vitro selectivity assay; assay type: biochemical; details: selectivity panel
# Procedure: as §2
# FRK = FRK (Homo sapiens, UniProt P42685); experiment: In vitro selectivity assay; assay type: biochemical; details: selectivity panel
# Procedure: as §2
# HDAC1 = target: T11, HDAC1 (Homo sapiens, UniProt Q13547); experiment: In vitro selectivity assay; assay type: biochemical; details: selectivity panel
# T11 construct: ICE Bioscience Inc. (contract assay provider)
# Procedure: as §2
# HDAC2 = target: T12, HDAC2 (Homo sapiens, UniProt Q92769); experiment: In vitro selectivity assay; assay type: biochemical; details: selectivity panel
# T12 construct: ICE Bioscience Inc. (contract assay provider)
# Procedure: as §2
# HDAC4 = target: T13, HDAC4 (Homo sapiens, UniProt P56524); experiment: In vitro selectivity assay; assay type: biochemical; details: selectivity panel
# T13 construct: ICE Bioscience Inc. (contract assay provider)
# Procedure: as §2
# HDAC5 = target: T14, HDAC5 (Homo sapiens, UniProt Q9UQL6); experiment: In vitro selectivity assay; assay type: biochemical; details: selectivity panel
# T14 construct: ICE Bioscience Inc. (contract assay provider)
# Procedure: as §2
# HDAC7 = target: T15, HDAC7 (Homo sapiens, UniProt Q8WUI4); experiment: In vitro selectivity assay; assay type: biochemical; details: selectivity panel
# T15 construct: ICE Bioscience Inc. (Beijing, China), the contract lab that ran the assay
# Procedure: as §2
# JAK1 = JAK1 (Homo sapiens, UniProt P23458); experiment: In vitro selectivity assay; assay type: biochemical; details: selectivity panel
# Procedure: as §2
# LYN = target: T16, LYN (Homo sapiens, UniProt P07948); experiment: In vitro selectivity assay; assay type: biochemical; details: selectivity panel
# T16 construct: ICE Bioscience Inc. (contract assay provider)
# Procedure: as §2
# MUSK = target: T17, MUSK (Homo sapiens, UniProt O15146); experiment: In vitro selectivity assay; assay type: biochemical; details: selectivity panel
# T17 construct: ICE Bioscience Inc. (contract assay provider)
# Procedure: as §2
# NTRK2 = target: T18, NTRK2 (Homo sapiens, UniProt Q16620); experiment: In vitro selectivity assay; assay type: biochemical; details: selectivity panel
# T18 construct: ICE Bioscience Inc. (contract assay provider)
# Procedure: as §2
# PDGFRB = target: T19, PDGFRB (Homo sapiens, UniProt P09619); experiment: In vitro selectivity assay; assay type: biochemical; details: selectivity panel
# T19 construct: ICE Bioscience Inc. (contract assay provider)
# Procedure: as §2
# PTK2B = target: T20, PTK2B (Homo sapiens, UniProt Q14289); experiment: In vitro selectivity assay; assay type: biochemical; details: selectivity panel
# T20 construct: ICE Bioscience Inc. (contract assay provider)
# Procedure: as §2
# RAF1 = RAF1 (Homo sapiens, UniProt P04049); experiment: In vitro selectivity assay; assay type: biochemical; details: selectivity panel
# Procedure: as §2
# RET = target: T21, RET (Homo sapiens, UniProt P07949); experiment: In vitro selectivity assay; assay type: biochemical; details: selectivity panel
# T21 construct: ICE Bioscience Inc. (contract assay provider)
# Procedure: as §2
# ZAP70 = ZAP70 (Homo sapiens, UniProt P43403); experiment: In vitro selectivity assay; assay type: biochemical; details: selectivity panel
# Procedure: as §2
# Chain of JAK1 (P23458 whole entry): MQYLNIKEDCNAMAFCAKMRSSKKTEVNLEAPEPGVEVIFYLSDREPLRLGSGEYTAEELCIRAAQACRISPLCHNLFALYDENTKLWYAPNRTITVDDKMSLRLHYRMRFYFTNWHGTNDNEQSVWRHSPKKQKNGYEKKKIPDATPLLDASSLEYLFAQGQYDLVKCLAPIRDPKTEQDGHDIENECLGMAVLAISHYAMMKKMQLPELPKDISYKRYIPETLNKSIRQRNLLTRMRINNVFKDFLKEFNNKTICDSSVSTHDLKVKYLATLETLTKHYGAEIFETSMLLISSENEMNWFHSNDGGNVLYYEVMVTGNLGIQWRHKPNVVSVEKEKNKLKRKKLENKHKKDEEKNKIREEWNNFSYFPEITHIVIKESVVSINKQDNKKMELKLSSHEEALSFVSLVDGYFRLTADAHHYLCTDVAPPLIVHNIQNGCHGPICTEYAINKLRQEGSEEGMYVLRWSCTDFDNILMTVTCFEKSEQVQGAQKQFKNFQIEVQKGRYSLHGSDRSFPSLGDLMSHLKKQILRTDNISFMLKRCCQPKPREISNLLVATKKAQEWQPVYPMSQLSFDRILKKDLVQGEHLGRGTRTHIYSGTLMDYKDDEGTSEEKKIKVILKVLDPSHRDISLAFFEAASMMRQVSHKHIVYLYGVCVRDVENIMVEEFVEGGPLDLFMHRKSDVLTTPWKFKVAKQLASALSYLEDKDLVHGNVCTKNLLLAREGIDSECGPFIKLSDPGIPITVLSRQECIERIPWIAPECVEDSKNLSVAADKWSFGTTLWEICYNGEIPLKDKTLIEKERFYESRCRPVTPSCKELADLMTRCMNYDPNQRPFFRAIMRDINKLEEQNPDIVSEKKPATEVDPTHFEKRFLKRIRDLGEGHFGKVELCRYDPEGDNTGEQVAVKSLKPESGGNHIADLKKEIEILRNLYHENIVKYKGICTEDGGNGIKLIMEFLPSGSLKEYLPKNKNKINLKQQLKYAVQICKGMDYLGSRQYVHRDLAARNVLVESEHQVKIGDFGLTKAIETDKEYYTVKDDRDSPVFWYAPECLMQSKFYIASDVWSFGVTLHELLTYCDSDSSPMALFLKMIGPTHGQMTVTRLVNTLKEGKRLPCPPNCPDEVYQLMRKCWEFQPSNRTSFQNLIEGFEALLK
# T3 sequence (P51813 whole entry): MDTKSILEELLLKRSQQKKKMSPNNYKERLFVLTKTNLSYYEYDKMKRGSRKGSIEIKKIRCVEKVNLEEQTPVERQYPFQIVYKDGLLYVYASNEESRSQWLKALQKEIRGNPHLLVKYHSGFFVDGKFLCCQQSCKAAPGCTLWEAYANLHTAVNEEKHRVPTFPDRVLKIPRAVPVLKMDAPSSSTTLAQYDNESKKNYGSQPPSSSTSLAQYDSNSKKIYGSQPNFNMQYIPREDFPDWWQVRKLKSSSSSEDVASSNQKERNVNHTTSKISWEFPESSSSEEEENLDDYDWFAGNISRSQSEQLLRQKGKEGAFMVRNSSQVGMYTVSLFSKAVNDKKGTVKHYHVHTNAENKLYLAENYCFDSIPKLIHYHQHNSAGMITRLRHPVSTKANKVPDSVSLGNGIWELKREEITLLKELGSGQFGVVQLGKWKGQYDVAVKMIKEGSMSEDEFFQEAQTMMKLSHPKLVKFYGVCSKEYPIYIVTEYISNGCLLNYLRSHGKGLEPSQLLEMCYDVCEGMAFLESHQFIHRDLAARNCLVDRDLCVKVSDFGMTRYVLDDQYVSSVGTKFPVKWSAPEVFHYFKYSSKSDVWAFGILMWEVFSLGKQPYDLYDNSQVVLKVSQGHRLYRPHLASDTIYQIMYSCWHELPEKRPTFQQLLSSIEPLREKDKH
# Chain of EPHB4 (P54760 16-987): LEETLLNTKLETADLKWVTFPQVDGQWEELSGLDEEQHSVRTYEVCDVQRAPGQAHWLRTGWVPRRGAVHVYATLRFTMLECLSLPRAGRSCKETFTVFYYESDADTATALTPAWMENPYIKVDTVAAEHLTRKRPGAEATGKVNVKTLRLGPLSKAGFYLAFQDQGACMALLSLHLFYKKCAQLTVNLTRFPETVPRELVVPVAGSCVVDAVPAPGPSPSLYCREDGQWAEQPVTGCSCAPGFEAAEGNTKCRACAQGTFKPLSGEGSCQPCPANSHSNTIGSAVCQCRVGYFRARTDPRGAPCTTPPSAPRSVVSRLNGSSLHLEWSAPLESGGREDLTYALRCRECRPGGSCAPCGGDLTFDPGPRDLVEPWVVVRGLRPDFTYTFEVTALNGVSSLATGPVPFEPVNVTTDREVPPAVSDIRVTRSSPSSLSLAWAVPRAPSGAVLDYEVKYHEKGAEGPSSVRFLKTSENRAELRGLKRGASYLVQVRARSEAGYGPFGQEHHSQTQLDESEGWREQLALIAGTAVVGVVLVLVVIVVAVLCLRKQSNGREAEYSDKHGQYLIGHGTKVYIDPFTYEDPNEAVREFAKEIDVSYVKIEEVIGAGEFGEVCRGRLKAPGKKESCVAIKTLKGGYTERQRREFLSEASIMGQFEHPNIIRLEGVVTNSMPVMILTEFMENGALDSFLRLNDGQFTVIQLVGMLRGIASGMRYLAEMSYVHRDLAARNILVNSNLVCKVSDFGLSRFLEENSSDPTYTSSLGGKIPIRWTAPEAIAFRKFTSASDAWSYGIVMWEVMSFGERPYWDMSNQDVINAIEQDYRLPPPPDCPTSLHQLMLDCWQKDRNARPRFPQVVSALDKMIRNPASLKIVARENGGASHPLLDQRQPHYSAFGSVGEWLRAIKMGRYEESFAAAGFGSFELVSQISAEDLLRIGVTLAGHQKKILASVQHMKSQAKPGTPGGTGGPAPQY
# T16 sequence (P07948 whole entry): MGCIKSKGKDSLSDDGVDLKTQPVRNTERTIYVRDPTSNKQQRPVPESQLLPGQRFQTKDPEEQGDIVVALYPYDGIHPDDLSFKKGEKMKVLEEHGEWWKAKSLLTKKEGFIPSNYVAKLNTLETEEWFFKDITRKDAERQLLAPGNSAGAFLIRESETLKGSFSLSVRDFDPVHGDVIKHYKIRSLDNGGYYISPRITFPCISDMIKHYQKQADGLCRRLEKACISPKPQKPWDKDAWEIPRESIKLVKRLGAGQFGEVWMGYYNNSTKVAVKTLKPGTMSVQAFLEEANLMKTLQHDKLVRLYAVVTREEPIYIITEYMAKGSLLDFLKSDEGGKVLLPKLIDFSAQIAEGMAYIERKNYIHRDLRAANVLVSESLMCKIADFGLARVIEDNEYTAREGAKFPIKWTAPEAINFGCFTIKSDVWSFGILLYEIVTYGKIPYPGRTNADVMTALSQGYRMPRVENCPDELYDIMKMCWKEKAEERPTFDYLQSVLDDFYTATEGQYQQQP
# T8 sequence (Q9UF33 23-1036): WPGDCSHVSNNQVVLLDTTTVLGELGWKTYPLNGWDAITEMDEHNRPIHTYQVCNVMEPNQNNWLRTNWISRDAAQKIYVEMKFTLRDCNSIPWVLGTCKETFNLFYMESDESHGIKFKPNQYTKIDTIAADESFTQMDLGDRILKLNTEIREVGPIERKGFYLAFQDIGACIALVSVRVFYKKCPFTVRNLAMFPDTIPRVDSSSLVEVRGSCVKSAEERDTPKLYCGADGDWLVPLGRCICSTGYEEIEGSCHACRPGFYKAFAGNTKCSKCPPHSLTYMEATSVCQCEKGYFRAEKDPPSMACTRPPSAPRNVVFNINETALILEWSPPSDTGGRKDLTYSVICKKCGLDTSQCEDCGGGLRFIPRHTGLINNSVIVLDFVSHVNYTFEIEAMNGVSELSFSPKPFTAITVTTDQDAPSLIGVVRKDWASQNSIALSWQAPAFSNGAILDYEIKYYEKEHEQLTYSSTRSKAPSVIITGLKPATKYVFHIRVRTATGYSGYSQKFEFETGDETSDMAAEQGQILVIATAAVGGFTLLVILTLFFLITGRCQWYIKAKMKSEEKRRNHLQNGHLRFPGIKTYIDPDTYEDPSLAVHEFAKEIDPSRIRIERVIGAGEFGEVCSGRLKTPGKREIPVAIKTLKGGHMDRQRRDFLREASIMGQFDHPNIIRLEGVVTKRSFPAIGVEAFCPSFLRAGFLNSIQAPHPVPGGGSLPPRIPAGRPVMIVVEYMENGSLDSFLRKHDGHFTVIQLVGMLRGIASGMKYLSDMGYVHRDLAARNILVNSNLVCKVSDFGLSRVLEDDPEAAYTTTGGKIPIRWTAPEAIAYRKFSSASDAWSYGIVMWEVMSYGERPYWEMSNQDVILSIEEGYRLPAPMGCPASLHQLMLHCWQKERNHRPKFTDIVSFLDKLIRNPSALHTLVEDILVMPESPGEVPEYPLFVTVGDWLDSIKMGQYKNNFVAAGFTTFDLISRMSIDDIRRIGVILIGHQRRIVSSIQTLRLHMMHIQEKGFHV
# T4 sequence (Q06187 whole entry): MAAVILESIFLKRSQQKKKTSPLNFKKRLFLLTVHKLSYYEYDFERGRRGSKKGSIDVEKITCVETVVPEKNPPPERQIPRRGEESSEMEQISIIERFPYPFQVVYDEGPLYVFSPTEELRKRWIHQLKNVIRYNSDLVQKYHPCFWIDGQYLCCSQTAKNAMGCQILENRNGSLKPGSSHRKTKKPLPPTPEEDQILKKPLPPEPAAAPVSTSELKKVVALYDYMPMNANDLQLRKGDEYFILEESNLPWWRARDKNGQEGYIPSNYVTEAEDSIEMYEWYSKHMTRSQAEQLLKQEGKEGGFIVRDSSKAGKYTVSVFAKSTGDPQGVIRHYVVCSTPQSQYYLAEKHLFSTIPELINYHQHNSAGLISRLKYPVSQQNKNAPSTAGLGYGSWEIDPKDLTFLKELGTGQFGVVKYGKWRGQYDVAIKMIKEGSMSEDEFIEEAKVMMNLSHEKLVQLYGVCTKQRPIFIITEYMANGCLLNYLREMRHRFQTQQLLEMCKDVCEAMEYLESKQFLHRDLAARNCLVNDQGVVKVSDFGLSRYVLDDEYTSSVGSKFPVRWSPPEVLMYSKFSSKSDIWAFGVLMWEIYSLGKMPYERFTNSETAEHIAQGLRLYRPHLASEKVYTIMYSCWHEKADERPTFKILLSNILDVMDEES
smiles,measurement,setting,value
Cn1cc(-c2cc3cnc(Nc4ccc(-c5cncn5/C=C/C(=O)NO)cc4Cl)cc3n2C(=O)OC(C)(C)C)cn1 [MPH-5],IC50,HepG2 liver cancer cells,0.19 µM
same,IC50,BEL7402,0.86 µM
same,IC50,Huh-1,0.32 µM
same,phosphorylated histone H3 levels,P-histone H3,dose-dependent regulation
same,IC50,ABL2,> 10 µM
same,IC50,AXL,> 10 µM
same,IC50,BMX,> 10 µM
same,IC50,BTK,> 10 µM
same,IC50,DDR2,> 10 µM
same,IC50,EPHA2,> 10 µM
same,IC50,EPHA5,> 10 µM
same,IC50,EPHA6,> 10 µM
same,IC50,EPHA8,> 10 µM
same,IC50,EPHB3,> 10 µM
same,IC50,EPHB4,> 10 µM
same,IC50,ERBB2,> 10 µM
same,IC50,FGFR3,> 10 µM
same,IC50,FRK,> 10 µM
same,IC50,HDAC1,> 10 µM
same,IC50,HDAC2,> 10 µM
same,IC50,HDAC4,> 10 µM
same,IC50,HDAC5,> 10 µM
same,IC50,HDAC7,> 10 µM
same,IC50,JAK1,> 10 µM
same,IC50,LYN,> 10 µM
same,IC50,MUSK,> 10 µM
same,IC50,NTRK2,> 10 µM
same,IC50,PDGFRB,> 10 µM
same,IC50,PTK2B,> 10 µM
same,IC50,RAF1,> 10 µM
same,IC50,RET,> 10 µM
same,IC50,ZAP70,> 10 µM
